In patent US20240148821A1, “PHARMACEUTICAL USE OF CYCLIC PEPTIDE COMPOUND” (CHUGAI SEIYAKU KABUSHIKI KAISHA, priority 2021, published 2024):
Numbered stars: 1 amine (or outer) side, 2 acyl side, 3 side chain; on linkers, the order of the positions; unused ones are H or OH. Bridge positions count the residues as written; N and C are the ends. Square brackets hold non-standard residues; d marks the D form. Peptide text beside a SMILES is read from it. * marks the point of attachment. hPhe(3-Cl-4-CF3) = N[C@@H](CCc1ccc(C(F)(F)F)c(Cl)c1)C(=O)O; NMePhe(4-Me) = CN[C@@H](Cc1ccc(C)cc1)C(=O)O; X128 = O=C([C@H](Cc1cccc(F)c1F)N[*:1])[*:2]; X135 = O=C([C@H](Cc1cc(F)ccc1F)N[*:1])[*:2]; NMePhe(2-Cl) = CN[C@@H](Cc1ccccc1Cl)C(=O)O; NMeGly(cPent) = CN[C@H](C(=O)O)C1CCCC1; NMe3Pal = CN[C@@H](Cc1cccnc1)C(=O)O; NMeY = CN[C@@H](Cc1ccc(O)cc1)C(=O)O; NMeCha = CN[C@@H](CC1CCCCC1)C(=O)O; NMeGly(cPr) = CN[C@H](C(=O)O)C1CC1; NMehLeu = CN[C@@H](CCC(C)C)C(=O)O; Gly(N-(CH2)2OEt) = CCOCCNCC(=O)O; NMeChg = CN[C@H](C(=O)O)C1CCCCC1; N(CH2CH2)2CF2 = FC1(F)CCN(*)CC1; Gly(cPr) = N[C@H](C(=O)O)C1CC1; NMeD = CN[C@@H](CC(=O)O)C(=O)O; NMeL = CN[C@@H](CC(C)C)C(=O)O; NMeV = CN[C@H](C(=O)O)C(C)C; d(β3hA) = C[C@@H](N)CC(=O)O; NMeAbu = CC[C@H](NC)C(=O)O; Morpholide = C1CN(*)CCO1; NMeA = CN[C@@H](C)C(=O)O; NMeAib = CNC(C)(C)C(=O)O; Nle = CCCC[C@H](N)C(=O)O; Piperidide = C1CCN(*)CC1; Ac5c = NC1(C(=O)O)CCCC1; Aze = O=C(O)[C@@H]1CCN1; Ac4c = NC1(C(=O)O)CCC1; Sar = CNCC(=O)O

system: Human pancreatic cancer cell line AsPC-1 (G12D mutation Kras); test: AsPC-1 cell growth inhibition (AsPC-1 CGI); assay type: cell-based; details: read-out: AsPC-1 cell growth inhibition, 50% growth inhibitory concentration (IC50 value); 96 hours, CellTiter-Glo, values classified in ranges
Procedure: Test compounds were serially dilated with dimethyl sulfoxide, and 200 nL was then dispensed to a U-bottom 96-well plate using Labcyte Echo. […] The cell suspension was dispensed to a. plate containing a test compound at 100 μL per well and incubated at 37° C. in a 5% carbon dioxide gas incubator. 96 hours later, 80 μL of CellTiter-Glo (Promega) was added to each well and fluorescence was measured.

Row | Structure (SMILES) | IC50
1 | CC[C@H](C)[C@@H]1NC(=O)[C@H](CC(C)C)N(C)C(=O)C[C@@H](C(=O)N2CCCCC2)N(C)C(=O)[C@H](C2CCCCC2)N(C)C(=O)[C@H](C)NC(=O)[C@@H]2CCCN2C(=O)[C@H](CCc2ccc(C(F)(F)F)c(Cl)c2)NC(=O)CN(C)C(=O)[C@H](CC2CCCCC2)N(C)C(=O)CN(C)C(=O)CN(C)C1=O [Compound 591] ([NMeL]I[Sar][Sar][NMeCha][Sar][hPhe(3-Cl-4-CF3)]PA[NMeChg][NMeD]-Piperidide; lactam N-11) | > 0.5 µM
2 | CC(C)C[C@H]1C(=O)N[C@@H](C2CC2)C(=O)N(C)CC(=O)N(C)CC(=O)N(C)[C@@H](CC2CCCCC2)C(=O)N(C)CC(=O)N[C@@H](CCc2ccc(C(F)(F)F)c(Cl)c2)C(=O)N2CCC[C@H]2C(=O)NC2(CCCC2)C(=O)N(C)[C@@H](C2CCCCC2)C(=O)N(C)[C@H](C(=O)N2CCCCC2)CC(=O)N1C [Compound 1862] ([NMeL][Gly(cPr)][Sar][Sar][NMeCha][Sar][hPhe(3-Cl-4-CF3)]P[Ac5c][NMeChg][NMeD]-Piperidide; lactam N-11) | > 0.5 µM
3 | CC[C@H](C)[C@@H]1NC(=O)[C@H](C)N(C)C(=O)C[C@@H](C)NC(=O)[C@H](C2CCCC2)N(C)C(=O)C2(CCC2)NC(=O)[C@@H]2CCCN2C(=O)[C@H](CCc2ccc(C(F)(F)F)c(Cl)c2)NC(=O)CN(C)C(=O)[C@H](CC2CCCCC2)N(C)C(=O)CN(C)C(=O)CN(C)C1=O [Compound 1506] (cyclo([Ac4c][NMeGly(cPent)][d(β3hA)][NMeA]I[Sar][Sar][NMeCha][Sar][hPhe(3-Cl-4-CF3)]P)) | > 0.5 µM
4 | CC[C@H](C)[C@@H]1NC(=O)[C@H](CC(C)C)N(C)C(=O)C[C@@H](C(=O)N2CCCCC2)N(C)C(=O)[C@H](C2CCCCC2)N(C)C(=O)C2(CCCC2)NC(=O)[C@@H]2CCCN2C(=O)[C@H](CCc2ccc(C(F)(F)F)c(Cl)c2)NC(=O)CN(C)C(=O)[C@H](C2CC2)N(C)C(=O)CN(C)C(=O)CN(C)C1=O [Compound 1666] ([NMeL]I[Sar][Sar][NMeGly(cPr)][Sar][hPhe(3-Cl-4-CF3)]P[Ac5c][NMeChg][NMeD]-Piperidide; lactam N-11) | > 0.5 µM
5 | CC[C@H](C)[C@@H]1NC(=O)[C@H](C)N(C)C(=O)C[C@@H](C(=O)N2CCOCC2)N(C)C(=O)[C@H](C2CCCCC2)N(C)C(=O)C2(CCCC2)NC(=O)[C@H](Cc2cccnc2)N(C)C(=O)[C@H](CCc2ccc(C(F)(F)F)c(Cl)c2)NC(=O)CN(C)C(=O)[C@H](CC2CCCCC2)N(C)C(=O)[C@@H]2CCN2C(=O)CN(C)C1=O [Compound 1703] ([NMeA]I[Sar][Aze][NMeCha][Sar][hPhe(3-Cl-4-CF3)][NMe3Pal][Ac5c][NMeChg][NMeD]-Morpholide; lactam N-11) | > 0.5 µM
6 | CCCC[C@@H]1NC(=O)[C@H](Cc2cccc(F)c2F)NC(=O)CN(C)C(=O)[C@H](Cc2ccc(OC)cc2)N(C)C(=O)[C@@H]2CCN2C(=O)[C@H](C)N(C)C(=O)[C@H]([C@@H](C)CC)NC(=O)[C@H](CC)N(C)C(=O)C[C@@H](C(=O)N2CCCCC2)N(C)C(=O)[C@H](CC(C)C)NC(=O)C(C)(C)N(C)C1=O [Compound 1256] ([NMeAbu]I[NMeA][Aze][NMeY](Me)[Sar][X128][Nle][NMeAib]L[NMeD]-Piperidide; lactam N-11) | > 0.5 µM
7 | CC[C@H](C)[C@@H]1NC(=O)[C@H](CC(C)C)N(C)C(=O)C[C@@H](C(=O)N(C)C)N(C)C(=O)[C@H](C2CCCC2)N(C)C(=O)C2(CCCC2)NC(=O)[C@H](Cc2ccccc2Cl)N(C)C(=O)[C@H](CCc2ccc(C(F)(F)F)c(Cl)c2)NC(=O)CN(C)C(=O)[C@H](CC2CCCCC2)N(C)C(=O)[C@@H]2CCN2C(=O)[C@H](C)N(C)C1=O [Compound 1009] ([NMeL]I[NMeA][Aze][NMeCha][Sar][hPhe(3-Cl-4-CF3)][NMePhe(2-Cl)][Ac5c][NMeGly(cPent)][NMeD]-NMe2; lactam N-11) | > 0.5 µM
8 | CC[C@H](C)[C@@H]1NC(=O)[C@H](CC(C)C)N(C)C(=O)C[C@@H](C)NC(=O)[C@H](C(C)C)N(C)C(=O)C2(CCCC2)NC(=O)[C@@H]2CCCN2C(=O)[C@H](CCc2ccc(C(F)(F)F)c(Cl)c2)NC(=O)CN(C)C(=O)[C@H](Cc2ccccc2Cl)N(C)C(=O)CN(C)C(=O)CN(C)C1=O [Compound 1591] (cyclo([Ac5c][NMeV][d(β3hA)][NMeL]I[Sar][Sar][NMePhe(2-Cl)][Sar][hPhe(3-Cl-4-CF3)]P)) | > 0.5 µM
9 | CC[C@H](C)[C@@H]1NC(=O)[C@H](CC(C)C)N(C)C(=O)C[C@@H](C(=O)N2CCCCC2)N(C)C(=O)[C@H](C2CCCCC2)N(C)C(=O)C2(CCCC2)NC(=O)[C@@H](C)NC(=O)[C@H](CCc2ccc(C(F)(F)F)c(Cl)c2)NC(=O)CN(C)C(=O)[C@H](CC2CCCCC2)N(C)C(=O)CN(C)C(=O)CN(C)C1=O [Compound 277] ([NMeL]I[Sar][Sar][NMeCha][Sar][hPhe(3-Cl-4-CF3)][dA][Ac5c][NMeChg][NMeD]-Piperidide; lactam N-11) | > 0.5 µM
10 | CC[C@H](C)[C@@H]1NC(=O)[C@H](CC(C)C)N(C)C(=O)C[C@@H](C(=O)N(C)C)N(C)C(=O)[C@H](C2CCCC2)N(C)C(=O)C2(CCCC2)NC(=O)[C@@H]2CCCN2C(=O)[C@H](CCc2ccc(C(F)(F)F)c(Cl)c2)NC(=O)CN(C)C(=O)[C@H](Cc2ccc(C)cc2)N(C)C(=O)[C@@H]2CCN2C(=O)[C@H](C)N(C)C1=O [Compound 1756] ([NMeL]I[NMeA][Aze][NMePhe(4-Me)][Sar][hPhe(3-Cl-4-CF3)]P[Ac5c][NMeGly(cPent)][NMeD]-NMe2; lactam N-11) | ≤ 0.02 µM
11 | CC[C@H](C)[C@@H]1NC(=O)[C@H](CCC(C)C)N(C)C(=O)C[C@@H](C(=O)N(C)C)N(C)C(=O)[C@H](C2CCCC2)N(C)C(=O)C2(CCCC2)NC(=O)[C@@H]2CCCN2C(=O)[C@H](CCc2ccc(C(F)(F)F)c(Cl)c2)NC(=O)CN(C)C(=O)[C@H](Cc2ccc(C)cc2)N(C)C(=O)[C@@H]2CCN2C(=O)[C@H](C)NC1=O [Compound 303] ([NMehLeu]IA[Aze][NMePhe(4-Me)][Sar][hPhe(3-Cl-4-CF3)]P[Ac5c][NMeGly(cPent)][NMeD]-NMe2; lactam N-11) | ≤ 0.02 µM
12 | CCOCCN1CC(=O)N(C)CC(=O)N(C)[C@@H](CC2CCCCC2)C(=O)N(C)CC(=O)N[C@@H](CCc2ccc(C(F)(F)F)c(Cl)c2)C(=O)N2CCC[C@H]2C(=O)NC2(CCCC2)C(=O)N(C)[C@@H](C(C)C)C(=O)N[C@H](C)CC(=O)N(C)[C@@H](CC(C)C)C(=O)N[C@@H]([C@@H](C)CC)C1=O [Compound 329] (cyclo([Ac5c][NMeV][d(β3hA)][NMeL]I[Gly(N-(CH2)2OEt)][Sar][NMeCha][Sar][hPhe(3-Cl-4-CF3)]P)) | > 0.5 µM
13 | CC[C@H](C)[C@@H]1NC(=O)[C@H](CC(C)C)N(C)C(=O)C[C@@H](C(=O)N(C)C)N(C)C(=O)[C@H](C(C)C)N(C)C(=O)C2(CCCC2)NC(=O)[C@H](CC(=O)N2CCC(F)(F)CC2)N(C)C(=O)[C@H](CCc2ccc(C(F)(F)F)c(Cl)c2)NC(=O)CN(C)C(=O)[C@H](CC2CCCCC2)N(C)C(=O)CN(C)C(=O)CN(C)C1=O [Compound 218] ([NMeL]I[Sar][Sar][NMeCha][Sar][hPhe(3-Cl-4-CF3)][NMeD](N(CH2CH2)2CF2)[Ac5c][NMeV][NMeD]-NMe2; lactam N-11) | > 0.5 µM
14 | CCCC[C@@H]1NC(=O)[C@H](Cc2cc(F)ccc2F)NC(=O)CN(C)C(=O)[C@H](Cc2ccc(OC)cc2)N(C)C(=O)[C@@H]2CCN2C(=O)[C@H](C)N(C)C(=O)[C@H]([C@@H](C)CC)NC(=O)[C@H](CC)N(C)C(=O)C[C@@H](C(=O)N2CCCCC2)N(C)C(=O)[C@H](CC(C)C)NC(=O)C(C)(C)N(C)C1=O [Compound 1268] ([NMeAbu]I[NMeA][Aze][NMeY](Me)[Sar][X135][Nle][NMeAib]L[NMeD]-Piperidide; lactam N-11) | > 0.5 µM
